Results published in US8653143B2, “Use of panduratin derivative or Boesenbergia pandurata extract” (Newtree Co., Ltd., priority 2008, dated 2014).

Key:
Format in all cases: in vivo, C57BL/6 mice
[1] = tested on: mice in which obesity is induced with a high-fat diet; assay: Body weight and food intake of high-fat diet obese mice treated with panduratin derivatives; conditions: for food intake, test group versus other groups: high-fat diet obese C57BL/6 mice; for body weight increase after 8 weeks: high-fat diet control about 32%
Text: (§1) Mice in which obesity is induced with a high-fat diet were selected as a model to investigate the obesity-relieving effect of panduratin A prepared in Example 2. 3-week-old C57BL/6 mice were accustomed for a week, and a high-fat diet (Product # D12492, Research Diet Inc., New Brunswick, N.J., USA) was provided for 6 weeks to induce obesity. Then, the mice were randomly divided into 3 groups, 12 per each group. For the test group, panduratin A suspended in 0.25% carboxymethyl cellulose was administered once a day at regular hours for 8 weeks, with an administration dose of 50 mg/kg body weight. For comparison, 0.25% carboxymethyl cellulose only (control) of the same amount as that for the test group or sibutramine suspended in 0.25% carboxymethyl cellulose (5 mg/kg body weight) was orally administered. Then, food intake and body weight of the mice were measured every week, for 8 weeks.
(§2) The effect of isopanduratin A prepared in Example 3 on body weight and body fat decrease was investigated in the same manner as in Examples 5 and 6. After administration for 8 weeks, there was no difference between the test group and other groups in food intake.
(§3) The effect of 4-hydroxypanduratin A prepared in Example 4 on body weight and body fat decrease was investigated in the same manner as in Examples 5 and 6. After administration for 8 weeks, there was no difference between the 4-hydroxypanduratin-administered test group and other groups in food intake.

[2] = tested on: mice in which obesity is induced with a high-fat diet; assay: Body fat (abdominal, perirenal, epididymal) in high-fat diet obese mice treated with panduratin derivatives; conditions: administration for 8 weeks, same manner as panduratin A (50 mg/kg)
Experimental: as §1, with “3-week-old” for “Mice in which obesity is induced with a high-fat diet were selected as a model to investigate the obesity-relieving effect of panduratin A prepared in Example 2. 3-week-old”, “After administration for 8 weeks,” for “Then, food intake and body weight of”, “fasted” for “measured every week,”, “at least 12 hours. After cutting open the abdomen, perirenal fat and epididymal fat were taken out, washed with physiological saline, dried, and then weighed.” for “8 weeks.”
as §2, §3

[3] = tested on: mice in which obesity is induced with a high-fat diet; assay: Serum total cholesterol, triglyceride, total lipid and leptin in high-fat diet obese mice; conditions: sibutramine 5 mg/kg orally for 8 weeks
Experimental: 3-week-old C57BL/6 mice were accustomed for a week, and a high-fat diet (Product # D12492, Research Diet Inc., New Brunswick, N.J., USA) was provided for 6 weeks to induce obesity. Then, the mice were randomly divided into 3 groups, 12 per each group. For the test group, panduratin A suspended in 0.25% carboxymethyl cellulose was administered once a day at regular hours for 8 weeks, with an administration dose of 50 mg/kg body weight. For comparison, 0.25% carboxymethyl cellulose only (control) of the same amount as that for the test group or sibutramine suspended in 0.25% carboxymethyl cellulose (5 mg/kg body weight) was orally administered. After administration for 8 weeks, the mice were fasted for at least 12 hours. After cutting open the abdomen, blood was taken from the heart. The blood was centrifuged at 2,800 rpm at 4° C. for 30 minutes to separate the serum. The separated serum was stored at −70° C.
Total cholesterol level in the serum was determined by measuring absorbance at 500 nm using a standard enzyme assay kit. Serum triglyceride level was determined by measuring absorbance at 546 nm using a glycerol phosphate oxidase assay kit. Serum total lipid level was determined by measuring absorbance at 540 nm by the Frings method. Serum leptin level was determined by radioimmunoassay (RIA) using a mouse leptin RIA kit (Linco Research, Inc. USA).

[4] = tested on: mice in which obesity is induced with a high-fat diet; assay: Body weight and food intake of high-fat diet obese mice treated with Boesenbergia pandurata extract; conditions: sibutramine 5 mg/kg orally for 8 weeks; high-fat diet control about 33%
Text: as §1, with “of the Boesenbergia pandurata extract” for “of panduratin A”, “Example 1. 4-week-old” for “Example 2. 3-week-old”, “groups, 8” for “groups, 12”, “group, Boesenbergia pandurata extract” for “group, panduratin A”, “of 200” for “of 50”

[5] = 50 mg/kg body weight once a day for 8 weeks

SMILES	food intake, test group versus other groups [1, 5]	body weight increase after 8 weeks [1, 5] [%]	decrease of epididymal fat weight as compared to the high-fat diet control group [2] [%]	decrease of perirenal fat weight as compared to the high-fat diet control group [2] [%]	body weight increase after 8 weeks ([1]; sibutramine 5 mg/kg body weight orally for 8 weeks)	total cholesterol level in the serum ([3]; control 140.73±16.47) [mg/dL]	serum triglyceride level ([3]; control 154.36±27.02) [mg/dL]	total lipid level in the serum ([3]; control 555.18±80.86) [mg/dL]	body weight increase after 8 weeks [4]
CC(C)=CC[C@@H]1C(C)=CC[C@@H](c2ccccc2)[C@@H]1C(=O)c1c(O)cc(O)cc1O [4-hydroxypanduratin A]	no difference	~13	46	33					
COc1cc(O)cc(O)c1C(=O)[C@@H]1[C@H](CC=C(C)C)C(C)=CC[C@H]1c1ccccc1 [isopanduratin A, (4,6-dihydroxy-2-methoxyphenyl)[3-methyl-2-(3-methylbut-2-enyl)-6-phenylcyclohex-3-enyl]methanone]	no difference	~17	32	25					
CC(C)CC(N(C)C)C1(c2ccc(Cl)cc2)CCC1 (stereo not shown) [sibutramine]					about 20%	122.4 ± 22.6	150.2 ± 20.19	493.2 ± 111.9	about 27%
